Measured values as given in patent US6818203B2, “Use of perfluoroalkyl-containing metal complexes as contrast media in MR-imaging for visualization of plaque, tumors and necroses” (Schering Aktiengesellschaft, priority 2000, dated 2004).

Key:
[1] = critical micelle formation concentration (CMC) by tensiometry; format: physicochemical
Experimental: In aqueous systems, these amphiphilic molecules show the properties that are characteristic of standard surfactants (such as, e.g., sodium dodecylsulfate, SDS). They thus reduce the surface tension of water. By tensiometry, the so-called CMC (critical micelle formation concentration in mol/l) can be determined. In this respect, the surface tension is determined based on the concentration of the substance to be measured. The CMC can be calculated from the plot of the surface tension function (c) that is obtained. The critical micelle formation concentration of the compounds according to the invention must be <10^−3 mol/l, preferably <10^−4 mol/l.
Both the determination of the CMC and the photon correlation spectroscopy are described in H.-D. Dörfler, “Grenzflächen- und Kolloidchemie [Interface and Colloid Chemistry],” Weinheim, New York, Basel, Cambridge, Tokyo, VSH 1994.

iliac lymph nodes = assay: lymph node visualization (MRT) after intravenous administration in rats; format: in vivo; conditions: for signal in healthy lymph node tissue (T1-weighted gradient-echo images): very shortly after injection
Experimental: (§1) By way of example, the pictures in FIG. 8 show MR images of iliac lymph nodes precontrast and up to 60 minutes after intravenous administration of 100 μmol of Gd/kg of body weight of metal complex X in rats. […] The enhancement was thus 263% at the time of 15 minutes p.i. and 254% at the time of 60 minutes p.i.
as §1, with “11” for “8”, “200” for “100”, “V” for “X”, “147%” for “263%”, “230%” for “254%”
as §1, with “17” for “8”, “200” for “100”, “III” for “X”, “320%” for “263%”, “401%” for “254%”

[2] = 15 minutes p.i., 200 μmol of Gd/kg i.v.
[3] = 60 minutes p.i., 200 μmol of Gd/kg i.v.

Structure (SMILES) | CMC (critical micelle formation concentration) [1] | enhancement in lymph node tissue (iliac lymph nodes; [2]) | enhancement in lymph node tissue (iliac lymph nodes; [3]) | signal in healthy lymph node tissue (T1-weighted gradient-echo images) (iliac lymph nodes; 200 μmol of Gd/kg i.v.) | enhancement in lymph node tissue (iliac lymph nodes; 15 minutes p.i., 100 μmol of Gd/kg i.v.) | enhancement in lymph node tissue (iliac lymph nodes; 60 minutes p.i., 100 μmol of Gd/kg i.v.) | signal in healthy lymph node tissue (T1-weighted gradient-echo images) (iliac lymph nodes; 100 μmol of Gd/kg i.v.)
O=C([O-])CN1CCN(CC(=O)[O-])CCN(CC(O)CNC(=O)CCCC(=O)N2CCN(C(F)(F)C(F)(F)C(F)(F)C(F)(F)C(F)(F)C(F)(F)C(F)(F)C(F)(F)F)CC2)CCN(CC(=O)[O-])CC1.[Gd+3] (stereo not drawn) [metal complex III] | 7.06e-06 mol/L | 320% | 401% | strong signal rise |  |  | 
CC(C(=O)NCC(=O)N(CCOCCC(F)(F)C(F)(F)C(F)(F)C(F)(F)C(F)(F)C(F)(F)C(F)(F)C(F)(F)F)CC(O)CO)N1CCN(CC(=O)[O-])CCN(CC(=O)[O-])CCN(CC(=O)[O-])CC1.[Gd+3] (stereo not drawn) [metal complex V] | 3.9e-06 mol/L | 147% | 230% | strong signal rise |  |  | 
COCCN(CCOCCC(F)(F)C(F)(F)C(F)(F)C(F)(F)C(F)(F)C(F)(F)C(F)(F)C(F)(F)F)C(=O)CNC(=O)C(C)N1CCN(CC(=O)[O-])CCN(CC(=O)[O-])CCN(CC(=O)[O-])CC1.[Gd+3] (stereo not drawn) [metal complex X] | 7.9e-06 mol/L |  |  |  | 263% | 254% | strong signal rise
